Laboratory results taken from patent publication US9351515B2, “Nutritional composition and methods of making and using same” (Georgia-Pacific Panel Products LLC, priority 2009, dated 2016).

Tested on: green fluorescent protein labeled Salmonella enterica serovar Typhimurium
Assay: Adherence of Salmonella to porcine derived IPEC J2 jejunal cells (Example 4)
Type: cell-based
Details: bacteria pre-exposed to 0.05M methyl α-D mannoside
Method: Porcine derived IPEC J2 jejunal cells were seeded onto 8-well chamber slides. […] The cells were exposed to suspensions containing a green fluorescent protein labeled Salmonella enterica serovar Typhimurium previously exposed for 10 minutes to an equal volume of water or to a suspension containing 17.5 mg Nutritional Composition/ml or 0.05M methyl α-D_mannoside. After the addition of treated or untreated bacteria, the chamber slides were incubated to allow attachment to occur and the wells of each slide were washed. Slides were examined by phase contrast microscopy at 1,000× magnification, and numbers of attached cells of the green fluorescent protein labeled Salmonella enterica serovar Typhimurium were counted on 100 randomly selected IPEC J2 cells.

CO[C@H]1O[C@H](CO)[C@@H](O)[C@H](O)[C@@H]1O [methyl α-D mannoside, methyl α-D-mannoside]
Salmonella binding to the IPEC J2 cells: no effect
